# Data taken from patent EP4789662A1, “POWDER FOR INHALATION” (Nagase Viita Co., Ltd., priority 2023, dated 2025).
# Tests used:
# [1] = tested on: chronic obstructive pulmonary disease (COPD); assay: Animal test 1: OVA-induced COPD in rats, lung tissue and BALF infiltrating cells; assay type: in vivo; settings: OVA-challenge; p.o. 60 mg/kg; BALF 24 h after OVA; Mean±S.E. (n=4)
# Description: In order to evaluate the pharmacological effect of the mT/PL-RP (Example 1) via intratracheal administration, chronic obstructive pulmonary disease (COPD) was induced in rats, and the effect was compared with the effect via oral administration. Ovalbumin (OVA, Sigma-Aldrich) was intraperitoneally administered three times at seven-day intervals. Next day, the mT/PL-RP (Example 1) (5 mg-PL/kg) was intratracheally administered, or the PL (Comparative Example 2) (60 mg/kg) was orally administered. One hour after the administration, inflammation was caused by intratracheally administering micronized OVA powder to induce COPD. Twenty-four hours after the inflammation caused by OVA administration, the lungs were excised and bronchoalveolar lavage fluid (BALF) was collected. The lung tissue was stained with peroxidase by a standard method and subsequently observed. […] FIG. 8 and Table 6 show the result.
# [2] = Animal test 2: amount of PL transferred into blood (pharmacokinetics); assay type: in vivo; settings: rat, po, rats, p.o. 60 mg/kg, Mean±S.E. (n=4-5)
# Description: The amount of PL transferred into blood was evaluated in oral administration and intratracheal administration. The blood PL concentrations up to 12 hours after administration were measured over time in a group of rats having undergone intratracheal administration of the mT/PL-RP (Example 1) (5 mg-PL/kg) and in a group of rats having undergone oral administration of the PL (Comparative Example 2) (60 mg/kg). FIG. 9 and Table 7 show the results.
smiles,measurement,setting,value
"O=C(Nc1cccc2c(=O)cc(-c3nnn[nH]3)oc12)c1ccc(OCCCCc2ccccc2)cc1 [Crystalline PL, pranlukast]","Inflammatory cells in BALF, Eosinophils",[1],1.5 ± 0.6 × 10^4 cells/mL
same,"Inflammatory cells in BALF, Macrophages",[1],3.1 ± 1.3 × 10^4 cells/mL
same,"Inflammatory cells in BALF, Neutrophils",[1],11.5 ± 2.7 × 10^4 cells/mL
same,Cmax,[2],250 ± 160 ng/mL
same,Tmax,[2],1.6 ± 0.6 h
